Reference: ChEMBL document CHEMBL5696442, “Discovery of type II inhibitors of TGFβ-activated kinase 1 (TAK1) and mitogen-activated protein kinase kinase kinase kinase 2 (MAP4K2)” (J Med Chem, 2015)

What was measured:
[1] = target: Tyrosine-protein kinase Fer (Homo sapiens, UniProt P16591); test: Inhibition of FER Lys1 labeling site in human Huh-7 cell lysate at 1 uM by KiNativ Profiling analysis relative to control; assay type: subcellular
[2] = target: Mitogen-activated protein kinase 14 (Homo sapiens, UniProt Q16539); test: Inhibition of p38 alpha in human Huh-7 cell lysate at 1 uM by KiNativ Profiling analysis relative to control; assay type: subcellular
[3] = target: Mitogen-activated protein kinase kinase kinase 1 (Homo sapiens) (UniProt Q13233); test: Inhibition of MAP3K1 Lys2 labeling site in human A-375 cells at 0.5 uM by KiNativ Profiling analysis relative to control; assay type: cell-based
[4] = target: Casein kinase I isoform delta (Homo sapiens) (UniProt P48730); test: Inhibition of CK1delta Lys2 labeling site in human A-375 cells at 0.05 uM by KiNativ Profiling analysis relative to control; assay type: cell-based
[5] = target: Mitogen-activated protein kinase 9 (Homo sapiens, UniProt P45984); test: Inhibition of JNK2 Lys2 labeling site in human A-375 cells at 0.5 uM by KiNativ Profiling analysis relative to control; assay type: cell-based
[6] = target: T1, Serine/threonine-protein kinase Nek9 (Homo sapiens) (UniProt Q8TD19); test: Inhibition of NEK9 Lys2 labeling site in human A-375 cells at 5 uM by KiNativ Profiling analysis relative to control; assay type: cell-based
T1 sequence (whole entry): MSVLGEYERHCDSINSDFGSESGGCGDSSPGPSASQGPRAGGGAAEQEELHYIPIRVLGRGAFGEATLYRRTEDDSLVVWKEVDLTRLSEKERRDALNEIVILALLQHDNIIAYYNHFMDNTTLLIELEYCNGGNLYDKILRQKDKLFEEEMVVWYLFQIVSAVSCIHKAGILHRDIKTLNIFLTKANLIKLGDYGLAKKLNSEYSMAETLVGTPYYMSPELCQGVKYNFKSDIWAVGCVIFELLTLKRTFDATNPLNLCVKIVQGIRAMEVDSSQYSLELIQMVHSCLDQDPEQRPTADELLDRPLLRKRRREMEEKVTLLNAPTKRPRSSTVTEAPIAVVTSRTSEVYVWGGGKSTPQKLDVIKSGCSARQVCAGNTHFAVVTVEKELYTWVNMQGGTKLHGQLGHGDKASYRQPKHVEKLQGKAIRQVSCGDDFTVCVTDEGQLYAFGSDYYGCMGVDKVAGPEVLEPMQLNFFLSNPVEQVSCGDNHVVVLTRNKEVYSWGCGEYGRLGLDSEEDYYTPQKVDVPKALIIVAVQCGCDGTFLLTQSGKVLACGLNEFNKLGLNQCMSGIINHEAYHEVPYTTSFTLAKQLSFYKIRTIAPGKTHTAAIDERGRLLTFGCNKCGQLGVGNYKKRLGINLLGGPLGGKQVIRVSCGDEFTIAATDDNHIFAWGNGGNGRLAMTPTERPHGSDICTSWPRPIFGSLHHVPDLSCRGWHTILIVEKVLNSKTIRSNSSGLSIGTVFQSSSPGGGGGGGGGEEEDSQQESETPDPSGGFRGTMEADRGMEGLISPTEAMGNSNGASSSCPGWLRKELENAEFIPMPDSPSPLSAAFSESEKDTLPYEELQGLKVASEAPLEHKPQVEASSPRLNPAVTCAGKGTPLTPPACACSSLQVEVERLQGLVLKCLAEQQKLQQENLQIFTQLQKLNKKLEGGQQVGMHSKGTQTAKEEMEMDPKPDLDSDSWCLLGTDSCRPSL

[7] = target: Phosphatidylinositol 4,5-bisphosphate 3-kinase catalytic subunit beta isoform (Homo sapiens) (UniProt P42338); test: Inhibition of PIK3CB ATP labeling site in human A-375 cells at 0.5 uM by KiNativ Profiling analysis relative to control; assay type: cell-based
[8] = target: T2, Aurora kinase C (Homo sapiens) (UniProt Q9UQB9); test: Inhibition of AurC ATP Loop labeling site in human A-375 cells at 0.05 uM by KiNativ Profiling analysis relative to control; assay type: cell-based
T2 sequence (whole entry): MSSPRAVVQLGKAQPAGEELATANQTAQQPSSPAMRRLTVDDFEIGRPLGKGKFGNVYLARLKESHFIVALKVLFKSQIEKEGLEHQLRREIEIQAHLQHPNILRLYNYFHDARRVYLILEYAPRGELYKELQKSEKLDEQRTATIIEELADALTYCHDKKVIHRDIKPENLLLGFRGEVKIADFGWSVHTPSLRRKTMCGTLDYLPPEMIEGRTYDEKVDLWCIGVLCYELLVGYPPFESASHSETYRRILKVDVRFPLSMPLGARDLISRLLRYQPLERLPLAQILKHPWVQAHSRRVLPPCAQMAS

[9] = target: T3, Mitogen-activated protein kinase 13 (Homo sapiens) (UniProt O15264); test: Inhibition of p38 delta Lys2 labeling site in human A-375 cells at 0.05 uM by KiNativ Profiling analysis relative to control; assay type: cell-based
T3 sequence (whole entry): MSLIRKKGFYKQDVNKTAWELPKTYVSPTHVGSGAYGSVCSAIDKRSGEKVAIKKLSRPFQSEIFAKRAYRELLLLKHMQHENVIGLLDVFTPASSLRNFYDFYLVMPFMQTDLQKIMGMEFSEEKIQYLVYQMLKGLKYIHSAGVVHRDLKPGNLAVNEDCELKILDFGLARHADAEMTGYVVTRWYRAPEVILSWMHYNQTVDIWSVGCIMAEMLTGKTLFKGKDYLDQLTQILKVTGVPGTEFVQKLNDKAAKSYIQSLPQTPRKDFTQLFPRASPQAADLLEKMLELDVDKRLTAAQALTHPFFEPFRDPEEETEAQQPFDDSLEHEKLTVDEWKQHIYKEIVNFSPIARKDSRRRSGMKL

[10] = target: Interleukin-1 receptor-associated kinase 1 (Homo sapiens) (UniProt P51617); test: Inhibition of IRAK1 Lys2 labeling site in human A-375 cells at 5 uM by KiNativ Profiling analysis relative to control; assay type: cell-based
[11] = target: Mitogen-activated protein kinase kinase kinase kinase 4 (Homo sapiens, UniProt O95819); test: Inhibition of ZC1/HGK Lys1 labeling site in human A-375 cells at 0.05 uM by KiNativ Profiling analysis relative to control; assay type: cell-based

Tyrosine-protein kinase Fer, sequence (P16591 whole entry, looked up): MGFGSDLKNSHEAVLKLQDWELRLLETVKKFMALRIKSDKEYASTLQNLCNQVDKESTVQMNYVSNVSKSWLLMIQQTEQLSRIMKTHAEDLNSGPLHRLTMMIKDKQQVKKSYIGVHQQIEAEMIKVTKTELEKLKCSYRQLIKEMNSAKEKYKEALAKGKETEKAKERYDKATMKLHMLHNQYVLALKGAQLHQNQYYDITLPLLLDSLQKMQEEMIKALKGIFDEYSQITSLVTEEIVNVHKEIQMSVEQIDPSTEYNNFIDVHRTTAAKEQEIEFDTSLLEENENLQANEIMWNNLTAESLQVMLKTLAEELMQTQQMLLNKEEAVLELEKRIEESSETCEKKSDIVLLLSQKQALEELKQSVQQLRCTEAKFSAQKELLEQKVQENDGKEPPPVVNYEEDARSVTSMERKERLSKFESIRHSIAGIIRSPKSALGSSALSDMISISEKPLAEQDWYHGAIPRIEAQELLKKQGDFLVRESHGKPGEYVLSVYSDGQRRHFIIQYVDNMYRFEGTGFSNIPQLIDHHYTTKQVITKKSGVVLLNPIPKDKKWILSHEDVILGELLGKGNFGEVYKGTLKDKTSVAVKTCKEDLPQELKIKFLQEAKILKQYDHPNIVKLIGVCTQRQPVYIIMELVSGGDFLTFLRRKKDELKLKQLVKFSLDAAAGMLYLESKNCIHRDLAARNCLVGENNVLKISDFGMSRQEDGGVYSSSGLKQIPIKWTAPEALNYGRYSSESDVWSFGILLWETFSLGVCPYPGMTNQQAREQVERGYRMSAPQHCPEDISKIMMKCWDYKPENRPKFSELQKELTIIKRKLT
Mitogen-activated protein kinase 14, sequence (Q16539 whole entry): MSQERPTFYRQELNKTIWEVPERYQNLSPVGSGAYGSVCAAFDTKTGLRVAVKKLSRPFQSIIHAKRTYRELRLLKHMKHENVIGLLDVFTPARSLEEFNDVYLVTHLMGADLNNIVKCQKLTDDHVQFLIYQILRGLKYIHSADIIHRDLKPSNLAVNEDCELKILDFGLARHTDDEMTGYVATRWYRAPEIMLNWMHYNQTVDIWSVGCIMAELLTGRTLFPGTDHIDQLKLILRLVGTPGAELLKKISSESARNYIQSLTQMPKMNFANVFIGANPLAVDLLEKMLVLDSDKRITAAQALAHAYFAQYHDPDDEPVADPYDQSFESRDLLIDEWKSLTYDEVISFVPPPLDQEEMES
Phosphatidylinositol 4,5-bisphosphate 3-kinase catalytic subunit beta isoform (Homo sapiens), sequence (P42338 whole entry, looked up, canonical isoform): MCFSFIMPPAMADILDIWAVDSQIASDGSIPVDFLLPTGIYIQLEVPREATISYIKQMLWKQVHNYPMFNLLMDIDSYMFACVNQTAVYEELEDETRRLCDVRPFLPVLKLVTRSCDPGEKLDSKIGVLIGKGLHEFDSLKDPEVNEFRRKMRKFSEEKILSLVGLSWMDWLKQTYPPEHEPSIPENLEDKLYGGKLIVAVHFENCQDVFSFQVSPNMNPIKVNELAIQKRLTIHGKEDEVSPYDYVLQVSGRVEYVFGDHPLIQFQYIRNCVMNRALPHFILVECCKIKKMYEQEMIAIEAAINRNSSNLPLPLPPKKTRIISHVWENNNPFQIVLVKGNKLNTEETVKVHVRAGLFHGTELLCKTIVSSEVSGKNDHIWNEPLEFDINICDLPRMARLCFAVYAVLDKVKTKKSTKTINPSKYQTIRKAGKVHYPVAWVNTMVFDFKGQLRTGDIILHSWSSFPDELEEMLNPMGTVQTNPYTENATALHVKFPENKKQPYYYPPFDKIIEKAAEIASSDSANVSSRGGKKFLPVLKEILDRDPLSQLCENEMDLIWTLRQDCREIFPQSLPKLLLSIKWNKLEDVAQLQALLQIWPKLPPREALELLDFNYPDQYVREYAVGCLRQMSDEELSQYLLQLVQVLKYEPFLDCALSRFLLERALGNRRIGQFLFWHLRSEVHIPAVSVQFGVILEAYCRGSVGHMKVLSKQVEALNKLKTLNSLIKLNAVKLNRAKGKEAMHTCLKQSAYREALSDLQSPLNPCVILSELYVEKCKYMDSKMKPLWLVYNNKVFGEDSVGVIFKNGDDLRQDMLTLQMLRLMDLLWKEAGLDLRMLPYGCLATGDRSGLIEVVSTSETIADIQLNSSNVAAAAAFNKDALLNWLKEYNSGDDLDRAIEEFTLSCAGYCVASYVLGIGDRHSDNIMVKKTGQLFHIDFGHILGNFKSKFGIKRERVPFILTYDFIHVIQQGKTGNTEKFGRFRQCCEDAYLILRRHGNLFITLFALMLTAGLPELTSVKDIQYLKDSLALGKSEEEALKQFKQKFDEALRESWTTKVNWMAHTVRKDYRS
Casein kinase I isoform delta (Homo sapiens), sequence (P48730 whole entry, looked up, canonical isoform): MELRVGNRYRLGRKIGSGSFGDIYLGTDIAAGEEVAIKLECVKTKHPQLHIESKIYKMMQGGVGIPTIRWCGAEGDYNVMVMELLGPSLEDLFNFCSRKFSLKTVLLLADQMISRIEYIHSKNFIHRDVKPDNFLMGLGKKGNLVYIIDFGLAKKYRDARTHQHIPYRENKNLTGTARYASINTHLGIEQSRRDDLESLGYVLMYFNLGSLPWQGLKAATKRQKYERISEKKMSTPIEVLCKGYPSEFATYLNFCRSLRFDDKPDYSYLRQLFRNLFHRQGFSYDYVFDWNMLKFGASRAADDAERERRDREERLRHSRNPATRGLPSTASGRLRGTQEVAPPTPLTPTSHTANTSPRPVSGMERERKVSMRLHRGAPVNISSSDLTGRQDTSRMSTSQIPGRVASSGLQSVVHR
Mitogen-activated protein kinase 9, sequence (P45984 whole entry, looked up): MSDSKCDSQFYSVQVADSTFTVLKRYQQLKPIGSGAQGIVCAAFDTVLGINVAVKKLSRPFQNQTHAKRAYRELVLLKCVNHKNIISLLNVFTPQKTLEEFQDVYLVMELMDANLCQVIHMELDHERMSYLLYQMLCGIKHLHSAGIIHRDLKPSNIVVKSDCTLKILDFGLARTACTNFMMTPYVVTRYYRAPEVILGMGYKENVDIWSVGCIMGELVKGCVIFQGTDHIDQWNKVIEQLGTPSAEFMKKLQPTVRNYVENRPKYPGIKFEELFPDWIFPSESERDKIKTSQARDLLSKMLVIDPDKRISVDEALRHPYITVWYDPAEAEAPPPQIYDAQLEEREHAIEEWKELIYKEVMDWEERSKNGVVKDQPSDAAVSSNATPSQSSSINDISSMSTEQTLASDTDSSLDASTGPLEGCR
Mitogen-activated protein kinase kinase kinase 1 (Homo sapiens), sequence (Q13233 whole entry, canonical isoform): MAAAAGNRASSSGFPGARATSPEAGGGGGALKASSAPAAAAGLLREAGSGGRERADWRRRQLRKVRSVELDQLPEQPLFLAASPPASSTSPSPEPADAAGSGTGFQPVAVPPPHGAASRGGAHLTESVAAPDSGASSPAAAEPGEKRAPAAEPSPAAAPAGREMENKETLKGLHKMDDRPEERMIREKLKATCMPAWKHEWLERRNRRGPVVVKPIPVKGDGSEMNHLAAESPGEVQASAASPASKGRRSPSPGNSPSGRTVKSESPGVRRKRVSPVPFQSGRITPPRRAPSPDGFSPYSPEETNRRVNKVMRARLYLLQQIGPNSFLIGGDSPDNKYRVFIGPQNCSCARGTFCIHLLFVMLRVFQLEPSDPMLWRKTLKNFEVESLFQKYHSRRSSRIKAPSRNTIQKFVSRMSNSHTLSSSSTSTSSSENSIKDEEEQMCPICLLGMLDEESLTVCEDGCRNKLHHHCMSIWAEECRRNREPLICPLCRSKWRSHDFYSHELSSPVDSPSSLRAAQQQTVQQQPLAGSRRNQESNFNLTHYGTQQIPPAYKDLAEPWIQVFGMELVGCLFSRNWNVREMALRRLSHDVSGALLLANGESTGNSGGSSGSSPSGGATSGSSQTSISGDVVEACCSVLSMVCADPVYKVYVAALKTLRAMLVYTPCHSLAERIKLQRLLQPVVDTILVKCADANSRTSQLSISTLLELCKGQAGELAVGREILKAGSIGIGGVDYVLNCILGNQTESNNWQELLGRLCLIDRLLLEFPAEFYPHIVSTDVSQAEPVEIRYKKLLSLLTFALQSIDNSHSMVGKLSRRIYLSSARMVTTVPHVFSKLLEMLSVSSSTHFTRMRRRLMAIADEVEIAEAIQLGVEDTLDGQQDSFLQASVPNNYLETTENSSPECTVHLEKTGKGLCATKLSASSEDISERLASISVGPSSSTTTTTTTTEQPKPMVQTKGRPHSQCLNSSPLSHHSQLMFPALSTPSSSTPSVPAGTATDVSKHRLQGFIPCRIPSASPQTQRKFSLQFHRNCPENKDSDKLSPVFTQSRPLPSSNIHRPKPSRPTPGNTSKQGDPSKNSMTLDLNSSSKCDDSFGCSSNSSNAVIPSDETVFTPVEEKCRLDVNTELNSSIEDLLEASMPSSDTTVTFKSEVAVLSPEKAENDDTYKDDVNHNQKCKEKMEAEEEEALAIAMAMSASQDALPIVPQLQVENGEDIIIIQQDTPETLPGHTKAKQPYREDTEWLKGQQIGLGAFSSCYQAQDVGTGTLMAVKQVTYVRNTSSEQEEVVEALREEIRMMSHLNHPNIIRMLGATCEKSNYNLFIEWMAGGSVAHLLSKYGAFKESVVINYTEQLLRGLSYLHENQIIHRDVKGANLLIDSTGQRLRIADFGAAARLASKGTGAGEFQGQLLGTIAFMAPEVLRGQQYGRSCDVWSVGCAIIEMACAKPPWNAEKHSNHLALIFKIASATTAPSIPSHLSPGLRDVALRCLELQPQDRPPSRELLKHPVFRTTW

Row | SMILES | inhibition [1] | inhibition [2] | inhibition [3] | inhibition [4] | inhibition [5] | inhibition [6] | inhibition [7] | inhibition [8] | inhibition [9] | inhibition [10] | inhibition [11]
1 | CNc1cc(Oc2cc(C(=O)Nc3cc(-n4cnc(C)c4)cc(C(F)(F)F)c3)ccc2C)ncn1 | 18.2% | 13.4% | – | – | – | – | – | – | – | – | –
2 | CNc1cc(Oc2cc(C(=O)Nc3cc(N4CCN(C)CC4)cc(C(F)(F)F)c3)ccc2C)ncn1 | 10.6% | 27.1% | – | – | – | – | – | – | – | – | –
3 | CCN1CCN(Cc2ccc(NC(=O)c3ccc(C)c(Oc4ccnc5[nH]ccc45)c3)cc2C(F)(F)F)CC1 | – | – | 39.7% | -0.7% | 73.7% | 3.2% | 8.8% | 32.5% | 64.9% | 7.4% | 42.1%
4 | CCN1CCN(Cc2ccc(NC(=O)c3ccc(C)c(/C=C/c4cnc5[nH]ccc5c4OC)c3)cc2C(F)(F)F)CC1 | – | – | 43.9% | -9.6% | 40.6% | 14.7% | 37.6% | 14.1% | 24.3% | 61.1% | 43.4%
